We go through three compounds from patent US20030133972A1, “Targeted multivalent macromolecules” (priority 2000, published 2003).

Experiment [1] has as its target αvβ3 integrin (Homo sapiens, UniProt P05106+P06756). Briefly: Competitive integrin binding assay (PVs mixed with free ligand 10). The settings on record: read-out: concentration of free ligand 10 to achieve 50% inhibition of PV binding; against PV1 carrying the equivalent of 0.5 μM of 10 on its surface.
For experiment [2], the system named is collagen receptors (α2β1 integrins). Briefly: Cell adhesion assay on plates coated with collagen. The format is cell-based. On the procedure: The cell adhesion assay was also performed with plates coated with collagen. Collagen binds to collagen receptors (α2β1 integrins) but not αvβ3 integrins. […] Without being bound by theory, it is believed that the observed inhibition of cell adhesion by PV-integrin agonist is due to the PV preventing interaction of collagen and its receptor by steric hindrance, due to the large size of the PV. Thus, not only does the PV targeted to a specific receptor bind to the receptor on the cell surface, but it blocks access to adjacent receptors due to its steric bulk.

The subject of experiment [3] is αvβ3 positive M21 Melanoma cells binding to vitronectin coated plates. As to the kind of experiment: Cell adhesion inhibition assay on vitronectin coated plates. The format is cell-based, human. The settings on record: 1 h incubation, PVs as equivalents of compound 10 on the surface, read-out: Cell Adhesion Assay IC50 (μM of 10 on NPs).
Experiment [4] concerns MS1 mouse endothelial pancreatic islet cells. Briefly: In vitro cell proliferation assay (crystal violet), endothelial cells. The class given is cell-based. To be noted: murine endothelial cells. Here is the method:
The effect of free doxorubicin or liposome-encapsulated doxorubicin on the cells was assayed calorimetrically by crystal violet staining method with slight modification. Mouse endothelial cells (ATCC# CRL-2279) and mouse melanoma cells (M2) were seeded in 96well flat-bottomed microtitre plates. The effect of the vesicles on cell proliferation was determined with cells near confluence (about 80%). The medium in each well was replaced with 100 ul of culture medium containing 250 ug/ml of vesicles containing doxorubicin. The mouse endothelial and melanoma cells were incubated for 1 hour at 37° C. and 5% CO2. After 1 hour incubation, the drug was removed, and compete medium that was lacking drug was added, and the cells were incubated for 48 hours at 37° C. and 5% CO2. The experiment was performed in duplicate. At the end of the incubation period, the cells were washed once with PBS and the cultures were fixed by 70% ethanol overnight. Next, the cells were stained with 100 ul of 0.1% crystal violet in 10% ethanol for 10 minutes at room temperature, and the cells were gently washed with water for 5 times. Next, 100 ul of 1% SDS was added to each well and the plates were placed on an orbital shaker for 15 minutes. After the crystal violet in cell membrane was removed with SDS, the plate was read at 590 nm. Finally, cell viability was evaluated as the mean value of optical density.

The target in experiment [5] is VEGFR1 (Homo sapiens, UniProt P17948). To be noted: affinity of VEGFR1 for VEGF; cited from earlier work.

Several values for one entry are separate records, joined by “and”; a condition that tells them apart may be missing. Equal entries are not always repeated.

Take “4-[2-(3,4,5,6-Tetrahydropyrimidin-2-ylamino)ethyloxy]-benzoyl-2-(S)amino Ethylsulfonylamino-β-alanine [Compound 10]”: the IC50 was 65 µM in experiment [1]; 64 µM and 63.9 µM in experiment [3]. The “inhibition of cell adhesion to collagen coated plates” value in experiment [2] is recorded as “neither the PV alone nor the agonist alone inhibited cell adhesion”.
Turning to `COc1cccc2c1C(=O)c1c(O)c3c(c(O)c1C2=O)C[C@@](O)(C(=O)CO)C[C@@H]3O[C@H]1C[C@H](N)[C@H](O)[C@H](C)O1` [Doxorubicin, doxorubicin], the “effect on cell proliferation” value in experiment [4] is recorded as “significant reductions in cell proliferation”.
As to VEGF, the Kd in experiment [5] was 0.001 to 0.02 nM.

In general, Kd refers to the constant that tells how readily two partners part at equilibrium.
